# In US20080221361A1, “Ionic Liquids” (BIONIQS LIMITED, priority 2005, published 2008):
# What was measured:
# Format in all cases: physicochemical
# Conditions in all cases: product dried to water content between about 0.2 and 1% w/w
# [1] = Density, mass of a measured volume of the liquid
# Description: (§1) Where the starting materials were both liquids, no solvent was used for the synthesis. Viscosities were measured using an AND™ SV10 vibrational viscometer. Refractive indices were obtained using a Mettler Toledo Refracto™ 30 portable refractometer. Densities were measured simply by determining the mass of a measured volume of the liquid. All products were dried prior to characterisation, to a water content of between about 0.2 and 1% w/w.
# [2] = Viscosity, AND SV10 vibrational viscometer
# Description: as §1
# [3] = Refractive index, Mettler Toledo Refracto 30 portable refractometer
# Description: as §1
Compound,Density (g/cm^3) (error ± ~2%) [1] [g/mL],Viscosity at 25° C. (centipoise) (error ± ~5%) [2],Refractive index (error ± ~2%) [3]
CC(=O)O.COCCCN [3-methoxypropylammonium acetate],1.04,640,1.447
COCCCN.O=C(O)CO [3-methoxypropylammonium glycolate],1.17,2670,1.470
"CC(=O)O.CCN(CC)CCO [N,N-diethylethanolammonium acetate]",1.00,55,1.453
"CCN(CC)CCO.O=CO [N,N-diethylethanolammonium formate]",1.04,395,1.462
"CCN(CC)CCO.O=C(O)CO [N,N-diethylethanolammonium glycolate]",1.11,740,1.466
"CCCCCCCC(=O)O.CCN(CC)CCO [N,N-diethylethanolammonium octanoate]",0.96,46,1.451
"CCC(=O)O.CCN(CC)CCO [N,N-diethylethanolammonium propionate]",0.98,42,1.450
"CC(=O)O.CCN(CC)CC(O)CO (stereo not drawn) [N,N-diethylpropane-2,3-diolammonium acetate]",–,3100,–
"CC(=O)O.COCCN(C)C [N,N-dimethyl-2-methoxyethylammonium acetate]",–,–,1.426
"CCS(=O)(=O)O.COCCN(C)C [N,N-dimethyl-2-methoxyethylammonium ethanesulphonate]",–,–,1.449
"COCCN(C)C.O=C(O)CO [N,N-dimethyl-2-methoxyethylammonium glycolate]",–,–,1.459
"COCCN(C)C.CS(=O)(=O)O [N,N-dimethyl-2-methoxyethylammonium methanesulphonate]",–,–,1.449
"CCC(=O)O.COCCN(C)C [N,N-dimethyl-2-methoxyethylammonium propionate]",–,–,1.422
"COCCN(C)C.NS(=O)(=O)O [N,N-dimethyl-2-methoxyethylammonium sulphamate]",–,–,1.472
"CC(=O)O.CN(C)CCOCCO [N,N-dimethyl-N-[(2-hydroxyethoxy)ethyl]ammonium acetate]",1.05,48,1.45
"CC(=O)O.CN(C)CCCO [N,N-dimethylpropanolammonium acetate]",1.03,77,1.451

Compound,Density (g/cm^3) (error ± ~2%) [1] [g/mL],Viscosity at 25° C. (centipoise) (error ± ~5%) [2],Refractive index (error ± ~2%) [3]
"CN(C)CCCO.O=CO [N,N-dimethylpropanolammonium formate]",1.07,132,1.460
"CN(C)CCCO.O=C(O)CO [N,N-dimethylpropanolammonium glycolate]",1.14,3320,1.472
"CCC(=O)O.CN(C)CCCO [N,N-dimethylpropanolammonium propionate]",0.99,52,1.441
CC(=O)O.CCCCNCCO [N-butylethanolammonium acetate],1.04,365,1.455
CCCCNCCO.O=CO [N-butylethanolammonium formate],1.04,376,1.462
CCCCNCCO.O=C(O)CO [N-butylethanolammonium glycolate],1.08,800,1.464
CCCCCCCC(=O)O.CCCCNCCO [N-butylethanolammonium octanoate],–,388,1.456
CCC(=O)O.CCCCNCCO [N-butylethanolammonium propionate],1.00,–,1.457
CC(=O)O.COCCN(C)CCOC [N-methyl-bis(2-methoxyethyl)ammonium acetate],–,–,1.423
COCCN(C)CCOC.O=C(O)CO [N-methyl-bis(2-methoxyethyl)ammonium glycolate],–,–,1.452
CCC(=O)O.COCCN(C)CCOC [N-methyl-bis(2-methoxyethyl)ammonium propionate],–,–,1.423
CC(=O)O.CCCNCCO [N-propylethanolammonium acetate],1.04,1310,1.459
CCC(=O)O.CCCNCCO [N-propylethanolammonium propionate],1.02,483,1.456
"N,N-dimethyl-2-methoxyethylammonium octanoate",0.93,13.5,1.429
N-methyl-bis(2-methoxyethyl)ammonium octanoate,–,–,1.431
